Reference: ChEMBL document CHEMBL3046720, “Molecular properties of fatty acids related to PPAR binding and metabolic diseases” (Med Chem Res, 2013)

How the values were obtained:
[1] = target: T1, Peroxisome proliferator-activated receptor alpha (Homo sapiens, UniProt Q07869); assay: Displacement of [3H]GW2331 from Homo sapiens (human) PPARalpha receptor by scintillation proximity assay
T1 sequence (Q07869 whole entry): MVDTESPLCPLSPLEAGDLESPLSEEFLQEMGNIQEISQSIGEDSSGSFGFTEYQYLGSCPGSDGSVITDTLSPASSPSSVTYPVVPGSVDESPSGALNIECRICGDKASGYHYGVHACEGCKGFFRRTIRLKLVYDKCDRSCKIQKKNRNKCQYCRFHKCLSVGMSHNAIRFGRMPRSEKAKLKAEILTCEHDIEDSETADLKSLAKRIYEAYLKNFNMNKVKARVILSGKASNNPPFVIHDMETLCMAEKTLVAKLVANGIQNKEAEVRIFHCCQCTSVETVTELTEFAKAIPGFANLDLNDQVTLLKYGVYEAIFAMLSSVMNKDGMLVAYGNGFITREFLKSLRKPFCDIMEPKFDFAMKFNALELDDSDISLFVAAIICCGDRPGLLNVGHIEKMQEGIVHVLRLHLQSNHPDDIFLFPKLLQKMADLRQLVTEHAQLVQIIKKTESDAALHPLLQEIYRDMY

[2] = target: T2, Peroxisome proliferator-activated receptor delta (Homo sapiens, UniProt Q03181); assay: Displacement of [3H]GW2433 from Homo sapiens (human) PPARdelta receptor by scintillation proximity assay
T2 sequence (Q03181 whole entry): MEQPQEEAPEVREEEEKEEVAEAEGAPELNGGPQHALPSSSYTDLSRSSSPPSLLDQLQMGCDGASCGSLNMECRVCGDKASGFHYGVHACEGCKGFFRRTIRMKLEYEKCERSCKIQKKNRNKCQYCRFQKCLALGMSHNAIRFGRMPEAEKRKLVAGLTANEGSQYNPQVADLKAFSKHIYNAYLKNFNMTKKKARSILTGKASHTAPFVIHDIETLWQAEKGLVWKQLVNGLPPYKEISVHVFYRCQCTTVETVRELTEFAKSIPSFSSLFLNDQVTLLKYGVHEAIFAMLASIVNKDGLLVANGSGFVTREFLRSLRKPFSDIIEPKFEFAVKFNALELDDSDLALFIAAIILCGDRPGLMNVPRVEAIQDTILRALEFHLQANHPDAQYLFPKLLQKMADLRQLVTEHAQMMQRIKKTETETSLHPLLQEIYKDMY

[3] = target: T3, Peroxisome proliferator-activated receptor gamma (Homo sapiens, UniProt P37231); assay: Displacement of [3H]BRL49653 from Homo sapiens (human) PPARgamma receptor by scintillation proximity assay
T3 sequence (P37231 whole entry): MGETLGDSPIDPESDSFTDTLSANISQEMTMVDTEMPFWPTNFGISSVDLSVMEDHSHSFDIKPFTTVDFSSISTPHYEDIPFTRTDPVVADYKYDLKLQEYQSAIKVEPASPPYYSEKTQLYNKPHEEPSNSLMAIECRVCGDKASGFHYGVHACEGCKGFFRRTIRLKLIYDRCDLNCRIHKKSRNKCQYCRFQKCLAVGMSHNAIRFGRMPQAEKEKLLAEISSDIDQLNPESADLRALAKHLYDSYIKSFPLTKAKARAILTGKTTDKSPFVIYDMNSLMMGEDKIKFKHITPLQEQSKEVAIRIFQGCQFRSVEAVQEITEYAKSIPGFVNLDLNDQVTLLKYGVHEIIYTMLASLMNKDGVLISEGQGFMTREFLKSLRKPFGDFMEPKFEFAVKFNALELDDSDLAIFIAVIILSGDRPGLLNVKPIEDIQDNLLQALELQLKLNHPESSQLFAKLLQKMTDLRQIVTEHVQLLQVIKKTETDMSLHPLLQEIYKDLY

With `CCCCCCCCCCCCCCCCCCCC(=O)O` [ARACHIDIC ACID] the IC50 [1] was > 30 µM and the IC50 [2] was > 30 µM.
`CCCCC/C=C\C/C=C\C/C=C\C/C=C\CCCC(=O)O` [ARACHIDONIC ACID] gave an IC50 [2] of 3.1 µM and an IC50 [3] of 1.6 µM.
For `CCCCCCCCCCCCCCCCCCCCCC(=O)O` [BEHENIC ACID], the IC50 [1] was > 30 µM and the IC50 [2] was > 30 µM.
In the case of `CCCCCCCCCC(=O)O` [DECANOIC ACID], the IC50 [1] is reported as > 30 µM, the IC50 [2] is reported as > 30 µM and the IC50 [3] is reported as 30 µM.
Compound `CCCCC/C=C\C/C=C\C/C=C\CCCCCCC(=O)O` [DIHOMO-GAMMA-LINOLENIC ACID] has an IC50 [2] of 4.3 µM and an IC50 [3] of 2.4 µM.
`CCCCCCCCCCCC(=O)O` [DODECANOATE] was tested, and the IC50 [1] was > 30 µM and the IC50 [2] was > 30 µM.
With `CCCCCCCC/C=C\CCCCCCCCCCCC(=O)O` [ERUCIC ACID] the IC50 [1] was > 30 µM and the IC50 [2] was > 30 µM.
`CCCCC/C=C\C/C=C\C/C=C\CCCCC(=O)O` [GAMOLENIC ACID] gave an IC50 [2] of 0.75 µM.
`CC/C=C\C/C=C\C/C=C\C/C=C\C/C=C\CCCC(=O)O` [ICOSAPENT] showed an IC50 [2] of 4 µM and an IC50 [3] of 1.6 µM.
`CCCCC/C=C\C/C=C\CCCCCCCC(=O)O` [LINOLEIC ACID] gave an IC50 [2] of 10 µM and an IC50 [3] of 6.2 µM.
`CC/C=C\C/C=C\C/C=C\CCCCCCCC(=O)O` [LINOLENIC ACID] gave an IC50 [2] of 16 µM.
For `CCCCCCCCCCCCCC(=O)O` [MYRISTIC ACID], the IC50 [1] was 5.4 µM and the IC50 [3] was 21 µM.
With `CCCCCCCC/C=C\CCCCCCCC(=O)O` [OLEIC ACID] the IC50 [2] was 5.3 µM and the IC50 [3] was 4.1 µM.
For `CCCCCCCCCCCCCCCC(=O)O` [PALMITIC ACID], the IC50 [1] was 1.5 µM.
Compound `CCCCCC/C=C\CCCCCCCC(=O)O` [PALMITOLEIC ACID] has an IC50 [2] of 9.6 µM and an IC50 [3] of 6.4 µM.
Compound `CCCCCCCCCCCCCCCCCC(=O)O` [STEARIC ACID] has an IC50 [1] of 1.1 µM.
